Results as given in patent US11185527B2, “Methods and compositions relating to steroid hormone receptor-dependent cancers” (Wayne State University, priority 2017, dated 2021).

Experiments:
[1] = test system: activation of ELK1 by MEK/ERK; test: Gal4-ELK1 reporter activation by constitutively active MEK1 in transfected HeLa cells; type: cell-based; details: HeLa cells with caMEK1; trametinib 1 μM, KCI807 20 μM
Protocol: FIG. 8 is a graph showing results of co-transfection of HeLa cells with the Gal4-TATA-Luc construct and the expression plasmid for the Gal4-ELK1 fusion protein. In addition the cells were transfected with an expression plasmid for a constitutively active MEK1 protein (caMEK1). The cells were then treated with the MEK1 inhibitor, trametinib (1 μM), KCI807 (20 μM), or vehicle (DMSO). Cells were harvested 48h post transfection and luciferase activity was measured. In all panels, the error bars represent standard deviation of experimental triplicates. *P<0.001
Hela Cells were plated in a 24-well plate at a concentration of 75,000 cells/well in antibiotic-free red DMEM. The following day the cells were transfected with a total of 300 ng of plasmid DNA/well using Lipofectamine 2000. The cells were incubated for 24h then lysed using luciferase assay lysis buffer 5X from Promega. The luciferase activity of the cell lysates were measured using firefly substrate from Promega and a luminometer (Lumat LB9501, Berthold, Wildbad, Germany).
As a secondary test of target selectivity, the effect of 5,3′-dihydroxyflavone on activation of ELK1 by MEK/ERK was examined using HeLa cells co-transfected with the Gal4-TATA-Luc construct, the expression plasmid for the Gal4-ELK1 fusion protein and either an expression plasmid for a constitutively active MEK1 protein (caMEK1) or vector control.

[2] = test system: DU145 (prostate cancer cells), AR-negative; test: Cell monolayer growth assay (MTT); type: cell-based
Protocol: FIG. 12A is a graph showing the effect of KCI807 on in vitro growth of AR-negative cell line Du145 cells measured by the MTT assay. All values were plotted relative to the Day zero value.
FIG. 16E is a graph showing the effect of 5′-Fluoro-5,3′-Dihydroxyflavone at various concentrations on growth of DU145 cells.
Cells were trypsinized and 3000-4000 cells/well were seeded in 96-well plates coated with poly-D-lysine. The cells were seeded in phenol red-free medium supplemented with 10% FBS, 100 units/ml penicillin, 100 μg/ml streptomycin, 2 mM L-glutamine mixture and sodium pyruvate (1 mM) for LNCaP cells and phenol red-free medium supplemented with 10% FBS, 100 units/ml penicillin, 100 μg/ml streptomycin and 2 mM L-glutamine mixture for VCaP, 22Rv1, DU145, HeLa, HEK293 and H1650 cells. The cells were grown at 37° C. in 5% CO2. Twenty four hours after seeding in the 96-well plates, the cells were treated with the indicated concentration of KCI807 or DMSO (vehicle). The cells were re-treated on Day 3 by removing half the volume of medium and replacing it with fresh treated medium. Cell viability was determined using the MTT assay from day zero until day five. […] The formazan crystal sediments were dissolved in 100 μL of DMSO, and the absorbance at 570 nm was measured using the BioTek Synergy 2 Microplate Reader (BioTek, Winooski, Vt.). […]

[3] = test system: ELK1-dependent promoter activation by AR; test: Primary screening assay: luciferase reporter in recombinant HeLa cells (Gal4-TATA-Luc, Gal4-ELK1, AR) treated with testosterone; type: cell-based, human
Text: FIG. 6A is a schematic diagram of the reporter system for the primary screening assay. Recombinant HeLa cells used in this assay harbor the Gal4-TATA-Luc promoter-reporter, and stably express a Gal4-ELK1 fusion protein as well as the androgen receptor (AR). Gal4-ELK1 is bound to the Gal4 elements in the promoter. In the absence of testosterone (small circle), AR is localized in the cytoplasm. When testosterone is present it binds to AR causing AR to translocate to the nucleus where it then binds to Gal4-ELK1 and activates the downstream luciferase reporter.
HeLa HLR cells obtained from Dr. Johann Hofman (Innsbruck Medical University), which were originally designed to serve as a cell-based assay system to measure modulation of MAPK activity. HeLa HLR cells have a stably integrated minimal promoter-luciferase reporter containing five upstream Gal4 elements (Gal4-TATA-Luc) and also constitutively express a Gal4-ELK1 fusion protein in which the Gal4 DNA binding domain is substituted for the ETS DNA binding domain of ELK1. In order to produce recombinant cell lines for high throughput screening and counter screening of small molecule libraries, HeLa HLR were stably transduced with a vector expressing the full-length AR. A sequence encoding the full length AR (SEQ ID NO:9) was subcloned from the pCMV expression vector (Origene) into the pCDH-CMV-MCS-EF1-Puro cDNA Cloning and Expression Vector (System Biosciences) at NheI (upstream) and BamHI (downstream) sites. The lentiviral vector expressing full length AR was then packaged in lentivirus and the HeLa HLR cells were infected as described below in the sub-section “Lentivirus-mediated-Transduction.” After 72 hours (h) of infection, 2 ug/mL of puromycin was added to the culture medium to select for the transduced cells. The cells were plated at low density for colony formation (20-40 colonies) in a 100 mm dish. Clonal cells were isolated using cloning cylinders from CORNING (Cat. #3166-8). The selected clones were further expanded and then tested for luciferase induction by testosterone. The clone that gave the greatest luciferase signal to noise ratio in response to testosterone treatment was then chosen for use in the primary screening assay for high throughput small molecule screening.
For high throughput screening, recombinant primary screening cells were first depleted of hormone by growing them for 24h in medium in which the serum used was heat-inactivated and charcoal-stripped. The cells were then plated in 384-well white flat bottom plates (5,000 cells/well) (Corning Product #3570) using a Multidrop (Thermo Fisher Scientific, Waltham, Mass.). The plates were then incubated for 24h prior to adding test compounds. The following day test compounds from the LOPAC, Prestwick, or Maybridge Hitfinder libraries were added precisely in a 0.2 μL volume in the test wells using a Biomek FX liquid handler (Beckman Coutler, Break, Calif.) to achieve final media concentration of 10 μM of each test compound. Using the Multidrop (ThermoLab Systems, Helsinki, Finland), testosterone was added in addition to the test compounds to achieve a final media concentration of 10 nM. As the test compounds were re-constituted from powder stocks using dimethyl sulfoxide (DMSO) as the solvent, the final media concentration of DMSO was 0.4% v/v. For the assay negative control on each plate, one row of wells on each plate contained 10 nM testosterone and 0.4% v/v of DMSO. For the assay positive control on each plate, one row of wells on each plate contained 10 nM testosterone and 10 uM enzalutamide dissolved in DMSO (0.4% v/v of DMSO in the wells). The plates were incubated for 24h at 37° C. in 5% CO2. The medium was then aspirated leaving a residual volume 10 μl using an Elx 405-plate washer (Bio Tek U.S.). Then, 10 uL of the assay reagent Bright-Glo (Promega Corp., Madison Wis.) was added to each well. […]

## O=c1cc(-c2cccc(O)c2)oc2cccc(O)c12 [KCI807, 5,3′-dihydroxyflavone]
[1]
  inhibition of luciferase reporter activation by MEK1 (activation of ELK1 by MEK/ERK): did not inhibit
[2]
  growth of DU145 cells: did not appreciably affect the growth

## O=c1cc(-c2cc(O)cc(F)c2)oc2cccc(O)c12 [5′-fluoro-5,3′-dihydroxyflavone]
[3]; primary versus counter screening assay
  selectivity for ELK1-dependent versus ARE-dependent promoter activity: more selective for the ELK1-dependent promoter activity than ARE-dependent activity
[1]
  inhibition of luciferase reporter activation by MEK1 (activation of ELK1 by MEK/ERK): did not affect
[2]
  growth of DU145 cells: did not inhibit growth

## CNC(=O)c1ccc(N2C(=S)N(c3ccc(C#N)c(C(F)(F)F)c3)C(=O)C2(C)C)cc1F [enzalutamide]
[3]; testosterone-treated recombinant HeLa cells, luciferase
  inhibition of ELK1-dependent promoter activation by AR (in words): completely suppressed the signal
